For the first assay, the target named is human SPR (Homo sapiens (Human), UniProt P35270). The experiment in a line: Evaluation Example 2: Measurement of human SPR inhibitory activity (seven concentrations, sepiapterin absorbance at 420 nm). It counts as biochemical. The note with it: Evaluation Example 2, seven concentrations 0.14 nM to 100 nM, 240 minutes at room temperature, read-out: IC50. The procedure, abridged: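 Reactions ran 240 min at room temperature in 100 mM Tris-HCl pH 7.5 with 0.01% BSA. They contained tag-cleaved, E. coli-expressed full-length human SPR (diluted to 150 ng/mL), seven compound concentrations from 0.14 to 100 nM, and sepiapterin/NADPH added as a 120 μM/160 μM solution. Inhibition was calculated from sepiapterin absorbance at 420 nm.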
Sequence of human SPR (P35270 whole entry): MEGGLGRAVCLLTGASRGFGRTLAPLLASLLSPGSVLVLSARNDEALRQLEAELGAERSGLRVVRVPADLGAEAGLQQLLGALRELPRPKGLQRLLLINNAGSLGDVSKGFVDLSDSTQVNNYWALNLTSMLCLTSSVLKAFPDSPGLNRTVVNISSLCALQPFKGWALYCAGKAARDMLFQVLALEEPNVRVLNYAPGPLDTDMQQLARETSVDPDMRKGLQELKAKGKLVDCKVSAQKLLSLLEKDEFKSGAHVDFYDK
Regarding `CC(C)Cn1c(=O)c(C(=O)NC2CC2)c(O)n2ncc(C(=O)NCc3cccnc3)c12` [Synthesis Example 216, N6-Cyclopropyl-7-hydroxy-4-isobutyl-5-oxo-N3-(pyridin-3-ylmethyl)-4,5-dihydropyrazolo[1,5-a]pyrimidine-3,6-dicarboxamide], the IC50 was found to be 0.78 nM. For the compound `CC(C)Cn1c(=O)c(C(=O)NC2CC2)c(O)n2ncc(/C=C/C(=O)N(C)CC(C)(C)O)c12` [compound 518, (E)-N-Cyclopropyl-7-hydroxy-3-(3-((2-hydroxy-2-methylpropyl)(methyl)amino)-3-oxoprop-1-en-1-yl)-4-isobutyl-5-oxo-4,5-dihydropyrazolo[1,5-a]pyrimidine-6-carboxamide], the IC50 stood at 0.66 nM. Regarding `CC(C)Cn1c(=O)c(C(=O)NC2CC2)c(O)n2ncc(/C=C/C(=O)N(C)C3CCOCC3)c12` [compound 523, (E)-N-Cyclopropyl-7-hydroxy-4-isobutyl-3-(3-(methyl(tetrahydro-2H-pyran-4-yl)amino)-3-oxoprop-1-en-1-yl)-5-oxo-4,5-dihydropyrazolo[1,5-a]pyrimidine-6-carboxamide], the IC50 amounted to 0.71 nM.

`CC(C)Cn1c(=O)c(C(=O)NC2CC2)c(O)n2ncc(/C=C/C3CCN(CC(F)(F)F)CC3)c12` [Synthesis Example 249, (E)-N-Cyclopropyl-7-hydroxy-4-isobutyl-5-oxo-3-(2-(1-(2,2,2-trifluoroethyl)piperidin-4-yl)vinyl)-4,5-dihydropyrazolo[1,5-a]pyrimidine-6-carboxamide]: the IC50 is 2.69 nM.

For `CC(C)Cn1c(=O)c(C(=O)NC2CC2)c(O)n2ncc(/C=C/C(=O)N3CCC(C)(O)C3)c12` (racemic) [compound 500, (E)-N-Cyclopropyl-7-hydroxy-3-(3-(3-hydroxy-3-methylpyrrolidin-1-yl)-3-oxoprop-1-en-1-yl)-4-isobutyl-5-oxo-4,5-dihydropyrazolo[1,5-a]pyrimidine-6-carboxamide (racemate)], the IC50 worked out at 0.88 nM.

As to `COC[C@H]1CCCN1C(=O)/C=C/c1c(C)nn2c(O)c(C(=O)NC3CC3)c(=O)n(CC(C)C)c12` [Synthesis Example 612, (R,E)-N-Cyclopropyl-7-hydroxy-4-isobutyl-3-(3-(2-(methoxymethyl)pyrrolidin-1-yl)-3-oxoprop-1-en-1-yl)-2-methyl-5-oxo-4,5-dihydropyrazolo[1,5-a]pyrimidine-6-carboxamide], the IC50 was found to be 1.23 nM.

In the case of `Cc1nn2c(O)c(C(=O)NC3CC3)c(=O)n(CC(C)C)c2c1/C=C/C(=O)N1CCC(C(F)F)C1` (stereo not shown) [Synthesis Example 622, (E)-N-Cyclopropyl-3-(3-(3-(difluoromethyl)pyrrolidin-1-yl)-3-oxoprop-1-en-1-yl)-7-hydroxy-4-isobutyl-2-methyl-5-oxo-4,5-dihydropyrazolo[1,5-a]pyrimidine-6-carboxamide], the IC50 stood at 1.03 nM. The same measure, in the same setting: as for `CC(C)(C)Cn1c(=O)c(C(=O)NC2CC2)c(O)n2nc(Nc3cnc(C#N)cn3)cc12` [Synthesis Example 323, 2-((5-Cyanopyrazin-2-yl)amino)-N-cyclopropyl-7-hydroxy-4-neopentyl-5-oxo-4,5-dihydropyrazolo[1,5-a]pyrimidine-6-carboxamide], the figure is 1.2 nM; as for `CC(C)Cn1c(=O)c(C(=O)NC2CC2)c(O)n2nc(NC(=O)OC(C)(C)C)c(/C=C/C(=O)N3CCC(F)(F)CC3)c12` [Synthesis Example 413, Tert-butyl (E)-(6-(cyclopropylcarbamoyl)-3-(3-(4,4-difluoropiperidin-1-yl)-3-oxoprop-1-en-1-yl)-7-hydroxy-4-isobutyl-5-oxo-4,5-dihydropyrazolo[1,5-a]pyrimidin-2-yl)carbamate], 1.32 nM.

Still in this assay, the particulars now being: sepiapterin absorbance, Table 41, read-out: concentration at 50% inhibition of human SPR (IC50).
For the compound `Cc1nn2c(O)c(C(=O)NC3CC3)c(=O)n(CC(C)(C)C)c2c1/C=C/C(=O)N1CCN(C2CC(F)(F)C2)CC1` [Synthesis Example 692, (E)-N-Cyclopropyl-3-(3-(4-(3,3-difluorocyclobutyl)piperazin-1-yl)-3-oxoprop-1-en-1-yl)-7-hydroxy-2-methyl-4-neopentyl-5-oxo-4,5-dihydropyrazolo[1,5-a]pyrimidine-6-carboxamide], the IC50 came out at 0.8 nM.
